Values belong to the compound of their own block, whether it stands above or below them. Ends that are not written are not given here.
What was measured:
[1] = target: nucleotide binding site (NBS) of IgEs; assay: Fluorescence quenching binding of NBS ligand; conditions: monovalent affinity
IgE^dansyl = assay: Fluorescence quenching binding of dansyl molecules to IgE^dansyl; conditions: dissociation constants for hapten-Napht conjugates
Description: To determine binding of HBI molecules to respective antibodies, we observed the quenching of tryptophan resides using a method previously described (Junutula JR, et al., Nat. Biotechnol. 2008; 26 (8): 925-932). Briefly, either IgE^dansyl or IgG^Penicillin was diluted into a non-binding 96-well dish at 40 nM in PBS. Then, HBI molecules which contained either a dansyl or DNP group were titrated into well and fluorescence (Ex. 280 nm, Em. 335) was observed using a SpectraMax M2 spectrophotometer. PBS and free tryptamine diluted to similar initial fluorescence values were used as controls to account for HBI fluorescence and non-specific quenching respectively.

trastuzumab [2] = assay: Fluorescence quenching assay with trastuzumab; format: binding; conditions: for Kd: fluorescence quenching, DNP-tagged ligands
Description: The binding constants (Kd) of monovalent ABS (trastuzumab binding peptide), NBS (naphthalene), and heterobivalent ligand (trast-napht) were determined using fluorescence quenching assay as previously described (Handlogten MW, et al., Chem Biol. 2011; 18 (9): 1179-1188). Briefly, ligands were titrated into trastuzumab (30 nM) as well as PBS and Indole-3-butyric acid (IBA) to exclude the effect of nonspecific interactions between DNP and tryptophan. Since DNP absorbs light at 335 nm and tryptophan emits light at 335 nm, the fluorescence of tryptophan is quenched by DNP. The fluorescence of tryptophan was read by SpectraMax M5 plate reader (Molecular Devices) at λex=280 nm and λem=335 nm with various concentrations of ligands. The fluorescence signals dropped upon titration of ligands and apparent binding constants were calculated using a Hill's curve fit in OriginPro 2015.

trastuzumab [3] = assay: Direct ELISA for selective binding of cHBL to trastuzumab; conditions: 8 hours, 37° C., pH 7.4
Description: ELISA was used to confirm selective binding of trast-cHBL to trastuzumab. […] FITC also reacted with trastuzumab at the same conditions except for pH; they were incubated in either PBS or carbonate-bicarbonate buffer. Trastuzumab without any covalent ligands was used as a negative control (pH 7.4). After an 8-hour reaction, all molecules were purified using Amicon Ultra-0.5 mL Centrifugal Filters to remove the unbound covalent ligands. Concentration of trastuzumab was determined by SpectraMax M5 plate reader. For ELISA, 96 well high-binding assay plate was coated with trastuzumab (0.5 nM in carbonate-bicarbonate buffer) overnight at 4° C. refrigerator. The next morning, the wells were washed with a washing buffer (0.05% Tween 20 in PBS) using AquaMax 2000 plate automatic washer (Molecular Devices) to remove unbound trastuzumab and blocked with blocking buffer (5% (w/v) BSA and 0.1% (v/v) Tween 20 in PBS) for 1 hour at room temperature. After 1 hour, the wells were washed and then incubated with goat anti-FITC IgG-HRP conjugate (1:20,000 in blocking buffer) for 1 hour. Amplex Red Hydrogen Peroxide/Peroxidase Assay kit was used to initiate enzymatic reaction and the fluorescence (λex=570 nm and λem=592 nm) was read by SpectraMax M5 plate reader.

trastuzumab [4] = assay: Western blot of ITC covalent conjugation to trastuzumab chains; format: biochemical; conditions: reducing gel
Description: ITC conjugation to active lysine on either light chain […] proximal to NBS was confirmed by western blot as previously described (Alves NJ, et al., Langmuir. 2012; 28 (25): 9640-9648). The samples (20 nM in 1×SDS reducing buffer) were run on a 10% SDS-PAGE gel at 110 V for 50 min in the presence of a Tris-glycine running buffer. The samples were then transferred to a nitrocellulose membrane (Bio-Rad) at 90 V for 90 min in a 20% methanol transfer buffer. The membrane was blocked with a blocking buffer (5% (w/v) non-fat dry milk in Tris buffered Saline with 0.05% Tween 20 (TBS-T)) for 1 hour. After 1 hour, the membrane was washed once with TBS-T and followed by incubation with HRP-conjugated goat anti-FITC IgG (1:20,000 in blocking buffer) for 45 min. The membrane was washed with 3×TBS-T for 10 min to remove the unbound secondary detection antibodies and subsequently incubated with chemiluminescent HRP substrate for 5 min to detect the location at which lysine on either heavy or light chain is conjugated to cHBL molecules. A second SDS-PAGE gel was run concurrently and stained in Commassie blue staining solution (0.15% Coomassie R-250 (EMD chemicals), 10% acetic acid and 20% methanol in DI water) and destained in destaining solution (10% acetic acid, methanol, and 80% DI water) to confirm that all the proteins were transferred to the membrane. […]

[5] = system: HER2/neu receptor on BT474 cells; assay: Cellular binding assay by flow cytometry with cHBL-tagged trastuzumab; format: cell-based
Description: Inhibition of trastuzumab by binding of trast-cHBL was confirmed by cellular binding assay with HER2-overexpressed breast and ovarian cancer cell lines (BT474 and SKOV3) using a Guava EasyCyte 8HT flow cytometer (Millipore). 0.5 mL of 50000 cells/mL were cultured on 2-well tissue culture plates overnight. The plate was kept on ice for 30 min to avoid receptor internalization. The wells were washed with a blocking buffer (1.5% BSA in PBS) and incubated with trastuzumab that had been previously incubated with trast-cHBL at various concentrations in the same fashion as the ELISA experiments for 1 hour on ice. The wells were washed once and incubated with Alexa Fluor 647-conjugated goat anti-human IgG (1:500 in blocking buffer) for 1 hour on ice. The wells were washed once with blocking buffer and the cells were gently scraped to run flow cytometer. Green (FITC) and Red2 (Alexa fluorophore with λem=667 nm) fluorescence were read to confirm trast-cHBL binding. Trastuzumab without any ligands and trastuzumab—FITC conjugate were used as positive controls and the cells with Alexa Flour 647-conjugated secondary antibody and without trastuzumab were used as negative controls.

NBS of trastuzumab = assay: Competitive ELISA of naphthalene-biotin binding to the NBS; conditions: 2 and 10 μM, p<0.01
Description: The specificity of naphthalene to NBS of IgG was confirmed using UV photo-cross-linking method and competitive sandwich ELISA. The wells of high binding plate were coated with goat-derived anti-human IgGs (1 nM in carbonate-bicarbonate buffer) overnight at 4° C. Trastuzumab (100 nM in PBS) prepared for ELISA described above was incubated with naphthalene-EG11-biotin (25 μM in PBS) for 1 hour at room temperature. PBS with only naphthalene-EG11-biotin was used as a negative control to normalize the binding curve. After 1 hour incubation, the molecules were exposed to UV light (1 J/cm^2) in a Spectroline UV select Series Cross-linker (Spectronics) to induce covalent photo-cross-linking of naphthalene to unbound NBS. The molecules were spun and 2 nM of the molecules were prepared in the blocking buffer. The wells coated with goat anti-human IgGs were washed and blocked with the blocking buffer for 1 hour. The wells were washed followed by incubation with the UV photo-cross-linked trastuzumab (2 nM) for 1 hour. […] An Amplex red assay kit was used to detect the fluorescence signals from the specific binding of naphthalene to NBS induced by UV photo-cross-linking. Since cHBL contains naphthalene, blocked NBS of trastuzumab is expected not to be photo-cross-linked to naphthalene-EGn-biotin, leading to relatively lower signals of fluorescence in the presence of cHBL.

Kd [1]: 1800 ± 300 nM
Kd ([1]; listed as 2-naphthaleneacetic acid): 2000 nM
Compound: O=C(O)Cc1ccc2ccccc2c1 [2-naphteleneacetic acid]

Kd (IgE^dansyl): 29.9 ± 10 nM
Compound: Dansyl

Kd (trastuzumab [2]): 200 ± 14 nM
Compound: LLGPYELWELSH [Trastuzumab binding peptide, reference compound]

binding to trastuzumab (direct ELISA) (trastuzumab [3]): not selective to trastuzumab up to 20 μM
Compound: Rituximab-cHBL: orthogonal cHBL with rituximab binding peptide WPRWLEN

Compound: Trast-DNP: trastuzumab binding peptide tagged with DNP (LLGPYELWELSH; also: tagged with DNP)
Kd (trastuzumab [2]): 200 ± 14 nM

Compound: Trast-ITC: trast-cHBL molecule where the napht moiety was omitted (LLGPYELWELSH)
antibody chain conjugated (trastuzumab [4]): conjugated nearly equally to either heavy (50 kDa) or light chain

Compound: Trast-Napht-DNP: trastuzumab binding peptide conjugated to napht with ethylene glycol spacer, DNP tagged (LLGPYELWELSH; also: conjugated to napht with ethylene glycol spacer, DNP tagged)
Kd (trastuzumab [2]): 46 ± 6 nM
Kd (trastuzumab [2]; listed as Trast-napht-DNP): 46.6 ± 6 nM
fold increase in observed affinity on conjugation to napht (trastuzumab [2]; napht with ethylene glycol spacer): over 4 fold

naphthalene-biotin binding after cHBL incubation (NBS of trastuzumab): significantly less naphthalene binding
Compound: Trast-cHBL: trastuzumab-specific cHBL with peptide LLGPYELWELSH, napht, ITC and fluorescein tag (not fully specified; also: cHBL with napht, ITC and fluorescein tag)
binding to trastuzumab (direct ELISA) (trastuzumab [3]): significant increase in binding over trastuzumab-ITC at 1 μM
cHBL concentration at which FITC signal saturates [5]: 2 µM
FITC signal, percent of maximum ([5]; 1 μM cHBL): approximately 50%
HER2 binding (Alexa 647 signal) ([5]; 1 μM cHBL): no significant reduction in HER2 binding
HER2 binding retained (Alexa 647 signal) ([5]; 2 μM cHBL): approximately 75%
HER2 binding (Alexa 647 signal) ([5]; 10 μM cHBL): HER2 binding drops drastically
antibody chain conjugated (trastuzumab [4]): preferentially conjugated to light chain
